Among the data in ChEMBL document CHEMBL3886193, “Bicyclic sulfonamide compounds as sodium channel inhibitors” (2015) are IC50 values, retold here.

Where “and” joins values, the source holds several entries; their conditions need not be identical. Equal values may be shown once.

For this assay, the target named is Sodium channel protein type 9 subunit alpha (Homo sapiens, UniProt Q15858). The assay is described as follows: Compound effects were measured on a partially inactivated state of the sodium channel. Cells were clamped to a holding potential yielding 20 to 50% inactivation. To elicit sodium current, channels were activated by pulsing to -10 mV for 20 msec. This voltage protocol was repeated at a rate of 0.1 Hz throughout the experiment. Format: cell-based, Sf9.
Chain of Sodium channel protein type 9 subunit alpha (Q15858 whole entry): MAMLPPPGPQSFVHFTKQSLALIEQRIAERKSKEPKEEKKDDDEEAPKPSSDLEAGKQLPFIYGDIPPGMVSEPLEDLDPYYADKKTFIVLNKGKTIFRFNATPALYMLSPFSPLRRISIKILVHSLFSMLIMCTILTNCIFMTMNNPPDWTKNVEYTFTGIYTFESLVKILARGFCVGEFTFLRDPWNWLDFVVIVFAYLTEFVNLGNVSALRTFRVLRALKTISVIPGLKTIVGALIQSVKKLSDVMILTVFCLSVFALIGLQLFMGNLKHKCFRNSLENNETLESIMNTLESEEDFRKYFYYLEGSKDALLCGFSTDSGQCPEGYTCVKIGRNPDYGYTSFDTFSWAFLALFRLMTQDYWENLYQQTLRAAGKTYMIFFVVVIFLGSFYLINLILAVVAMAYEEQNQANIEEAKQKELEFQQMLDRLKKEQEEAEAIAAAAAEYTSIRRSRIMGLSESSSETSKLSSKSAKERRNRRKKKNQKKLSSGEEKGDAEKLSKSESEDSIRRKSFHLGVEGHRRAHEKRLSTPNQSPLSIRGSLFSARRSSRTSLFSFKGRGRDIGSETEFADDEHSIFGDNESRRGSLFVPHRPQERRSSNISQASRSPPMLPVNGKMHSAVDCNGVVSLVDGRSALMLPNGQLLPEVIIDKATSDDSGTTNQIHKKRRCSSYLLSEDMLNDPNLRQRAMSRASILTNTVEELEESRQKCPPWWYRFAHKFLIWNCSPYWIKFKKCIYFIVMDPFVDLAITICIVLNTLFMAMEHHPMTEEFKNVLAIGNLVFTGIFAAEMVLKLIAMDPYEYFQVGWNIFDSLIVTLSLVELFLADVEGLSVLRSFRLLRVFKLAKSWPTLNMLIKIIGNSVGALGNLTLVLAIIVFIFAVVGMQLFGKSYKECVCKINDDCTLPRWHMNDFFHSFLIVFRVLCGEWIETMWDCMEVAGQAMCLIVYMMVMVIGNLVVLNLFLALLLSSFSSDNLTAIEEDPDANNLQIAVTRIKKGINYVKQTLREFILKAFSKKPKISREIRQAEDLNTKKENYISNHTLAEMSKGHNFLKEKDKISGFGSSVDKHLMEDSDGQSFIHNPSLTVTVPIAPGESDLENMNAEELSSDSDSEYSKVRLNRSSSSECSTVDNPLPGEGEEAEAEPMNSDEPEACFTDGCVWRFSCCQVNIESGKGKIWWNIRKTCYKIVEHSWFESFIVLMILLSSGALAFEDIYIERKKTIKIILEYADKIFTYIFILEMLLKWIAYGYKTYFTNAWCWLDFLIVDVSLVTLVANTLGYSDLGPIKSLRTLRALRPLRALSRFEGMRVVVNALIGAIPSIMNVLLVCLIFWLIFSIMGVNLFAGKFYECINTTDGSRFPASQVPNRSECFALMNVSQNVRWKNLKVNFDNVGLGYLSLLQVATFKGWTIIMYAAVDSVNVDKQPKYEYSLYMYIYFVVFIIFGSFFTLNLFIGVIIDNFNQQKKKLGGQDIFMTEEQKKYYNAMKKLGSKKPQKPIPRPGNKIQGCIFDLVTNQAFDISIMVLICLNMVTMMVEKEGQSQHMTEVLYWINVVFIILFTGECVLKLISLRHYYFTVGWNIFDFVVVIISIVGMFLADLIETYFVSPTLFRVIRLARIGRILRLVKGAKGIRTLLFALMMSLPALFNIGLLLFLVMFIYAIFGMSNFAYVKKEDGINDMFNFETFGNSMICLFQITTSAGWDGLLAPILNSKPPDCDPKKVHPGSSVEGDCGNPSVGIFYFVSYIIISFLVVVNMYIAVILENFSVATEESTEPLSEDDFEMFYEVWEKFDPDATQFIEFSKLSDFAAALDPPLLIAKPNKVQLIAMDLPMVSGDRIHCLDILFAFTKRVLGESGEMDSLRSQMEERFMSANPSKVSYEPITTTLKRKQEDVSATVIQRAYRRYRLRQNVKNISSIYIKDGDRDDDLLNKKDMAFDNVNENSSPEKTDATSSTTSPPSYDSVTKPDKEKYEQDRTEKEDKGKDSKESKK
For `COc1nc(OCC2CCCCC2)c(Cl)cc1-n1c(=O)ccc2cc(S(=O)(=O)Nc3ccon3)ccc21`, the IC50 (as a rule, the concentration needed to halve the response being measured) was 52 nM.
For `COc1cc(C#CC(C)(C)OC)c(F)cc1-n1c(=O)ccc2cc(S(=O)(=O)Nc3ccon3)ccc21`, the IC50 is 373 nM.
In turn, `COc1cc(Br)c(F)cc1-n1c(=O)ccc2cc(S(=O)(=O)Nc3ccnc(C)n3)ccc21` yielded an IC50 of 3010 nM.
Next, `COc1ccc(CC(=O)OC(C)(C)C)cc1-n1c(=O)ccc2cc(S(=O)(=O)Nc3ccon3)ccc21`: 1980 nM; `COc1cc(C2CCOCC2)c(F)cc1-n1c(=O)ccc2cc(S(=O)(=O)Nc3ccon3)ccc21`: 3070 nM; `COc1cc(-c2cc(Cl)cnc2OC)c(F)cc1-n1c(=O)ccc2cc(S(=O)(=O)Nc3ccon3)ccc21`: 24 nM.
Take `COc1cc(CC2CCCCC2)c(F)cc1-n1c(=O)ccc2cc(S(=O)(=O)Nc3ncccn3)ccc21`: 39 nM corresponded to half-maximal inhibition (IC50).
On to `COc1ccc(-c2cc(OC)c(-n3c(=O)ccc4cc(S(=O)(=O)Nc5ccon5)ccc43)cc2F)cc1Cl`, for which the IC50 was determined as 25 nM.
Consider `COc1cc(-c2cc(F)cc(OC(F)F)c2)c(F)cc1-n1c(=O)ccc2cc(S(=O)(=O)Nc3ccon3)ccc21`, for which 11 nM corresponded to half-maximal inhibition (IC50).
`COc1cc(-c2ccc(-n3c(=O)ccc4cc(S(=O)(=O)Nc5ncccn5)ccc43)c(OC)c2)ccc1Cl` came in with an IC50 of 21 nM.
In turn, `COc1cc(-c2ccc(-n3c(=O)ccc4cc(S(=O)(=O)Nc5cccnn5)ccc43)c(OC)c2)ccc1C` yielded an IC50 of 143 nM.
In the case of `COc1cc(NS(=O)(=O)c2ccc3c(ccc(=O)n3-c3cc(F)c(Br)cc3OC)c2)ncn1`, the midpoint of inhibition, the IC50, lay at 312 nM.
`COc1cc(-c2cc(F)cc(C(F)(F)F)c2)ccc1-n1c(=O)ccc2cc(S(=O)(=O)Nc3ncco3)ccc21` had a 50% inhibitory concentration (IC50) of 37 nM.
The compound `COc1cc(Cl)cc(-c2ccc(-n3c(=O)ccc4cc(S(=O)(=O)Nc5ccon5)ccc43)c(OC)c2)c1` returned an IC50 of 10 nM.
With `Cc1cc(-c2cc(C)c(-n3c(=O)ccc4cc(S(=O)(=O)Nc5ccncn5)ccc43)cc2F)ccc1Cl`, it took 684 nM to reach half-maximal inhibition (IC50).
For `CCc1nccc(NS(=O)(=O)c2ccc3c(ccc(=O)n3-c3cc(F)c(-c4cc(F)cc(Cl)c4)cc3OC)c2)n1` the value was 7920 nM; for `COc1cc(Br)c(F)cc1-n1c(=O)ccc2cc(S(=O)(=O)Nc3cc(C)ncn3)ccc21`, 1040 nM; for `COc1cc(-c2cc(F)cc(Cl)c2)c(F)cc1-n1c(=O)ccc2cc(S(=O)(=O)Nc3ncco3)ccc21`, 14 nM.
For `COc1cc(-c2ccc(Cl)cc2)ccc1-n1c(=O)ccc2cc(S(=O)(=O)Nc3ccon3)ccc21` the value was 22 nM; for `COc1cc(-c2ccc(-n3c(=O)ccc4cc(S(=O)(=O)Nc5cc(C)ncn5)ccc43)c(OC)c2)ccc1C`, 198 nM.
For `COc1cc(-c2ccc(C#N)c(C)c2)c(F)cc1-n1c(=O)ccc2cc(S(=O)(=O)Nc3ccon3)ccc21` the value was 91 nM; for `COc1cc(-c2cccc(C(F)F)c2)c(F)cc1-n1c(=O)ccc2cc(S(=O)(=O)Nc3ccon3)ccc21`, 35 nM.
For the compound `COc1cc(-c2cc(Cl)cnc2OC)c(F)cc1-n1c(=O)ccc2cc(S(=O)(=O)Nc3ncccn3)ccc21`, half-maximal inhibition (IC50) was put at 72 nM.
`COc1cc(OC)cc(-c2cc(OC)c(-n3c(=O)ccc4cc(S(=O)(=O)Nc5cccnn5)ccc43)cc2F)c1` displayed an IC50 of 83 nM.
For the compound `COc1cc(OC)cc(-c2cc(OC)c(-n3c(=O)ccc4cc(S(=O)(=O)Nc5ncccn5)ccc43)cc2F)c1`, 64 nM corresponded to half-maximal inhibition (IC50).
Next, `COc1ccc(-c2ccc(F)nc2)cc1-n1c(=O)ccc2cc(S(=O)(=O)Nc3ccon3)ccc21`: 902 nM.
In turn, `COc1cc(-c2ccc(Cl)c(C)c2)ccc1-n1c(=O)ccc2cc(S(=O)(=O)Nc3ncon3)ccc21` registered an IC50 of 30 nM.
Consider `COc1cc(C2CCCC2)c(F)cc1-n1c(=O)ccc2cc(S(=O)(=O)Nc3ccon3)ccc21`, for which the IC50 is 88 nM.
`COc1cc(-c2ccc(Cl)cc2)ccc1-n1c(=O)ccc2cc(S(=O)(=O)Nc3ncccn3)ccc21` yielded an IC50 of 95 nM.
For `COc1cc(Cl)cc(-c2ccc(-n3c(=O)cnc4cc(S(=O)(=O)Nc5ccon5)ccc43)c(OC)c2)c1` the value was 52 nM; for `COc1cc(-c2cc(Cl)ccc2C)ccc1-n1c(=O)ccc2cc(S(=O)(=O)Nc3ncccn3)ccc21`, 12 nM; for `COc1cc(-c2cc(F)cc(C(F)(F)F)c2)ccc1-n1c(=O)ccc2cc(S(=O)(=O)Nc3ccon3)ccc21`, 9 nM.
Regarding `COc1cc(-c2ccc(-n3c(=O)ccc4cc(S(=O)(=O)Nc5ccnc(C)n5)ccc43)c(OC)c2)ccc1C`, the IC50 was determined as 296 nM.
For `COc1cc(Oc2ccc(F)cc2)ccc1-n1c(=O)ccc2cc(S(=O)(=O)Nc3ccon3)ccc21` the value was 49 nM; for `COc1cc(-c2ccc(-n3c(=O)ccc4cc(S(=O)(=O)Nc5ncc(F)cn5)ccc43)c(OC)c2)ccc1C`, 166 nM; for `COc1cc(-c2cc(C)cc(F)c2)c(F)cc1-n1c(=O)ccc2cc(S(=O)(=O)Nc3ccon3)ccc21`, 8 nM.
For `COc1cc(-c2cccc(C(F)(F)F)c2)c(F)cc1-n1c(=O)ccc2cc(S(=O)(=O)Nc3cc(C)ncn3)ccc21` the value was 10 nM.
Regarding `COc1cc(C2CC2)c(Cl)cc1-n1c(=O)ccc2cc(S(=O)(=O)Nc3ccon3)ccc21`, inhibition was half-maximal at 481 nM (IC50).
In turn, `COc1cc(CC2CCCCC2)c(F)cc1-n1c(=O)ccc2cc(S(=O)(=O)Nc3ncon3)ccc21` yielded an IC50 of 30 nM.
`COc1cc(-c2ccc(F)cc2)c(F)cc1-n1c(=O)ccc2cc(S(=O)(=O)Nc3ccon3)ccc21` registered an IC50 of 9 nM.
Compound `COc1cc(-c2cccc(OC(F)F)c2)c(F)cc1-n1c(=O)ccc2cc(S(=O)(=O)Nc3ccnc(C)n3)ccc21` displayed an IC50 of 28 nM.
Regarding `COc1cc(NS(=O)(=O)c2ccc3c(ccc(=O)n3-c3cc(F)c(-c4cc(F)cc(Cl)c4)cc3OC)c2)ncn1`, 49 nM corresponded to half-maximal inhibition (IC50).
`COc1cc(-c2ccc(F)c(F)c2)c(F)cc1-n1c(=O)ccc2cc(S(=O)(=O)Nc3cccnn3)ccc21` came in with an IC50 of 16 nM.
Turning to `COc1cc(-c2ccc(F)c(OC(F)F)c2)c(F)cc1-n1c(=O)ccc2cc(S(=O)(=O)Nc3ccon3)ccc21`, the IC50 was 22 nM.
The compound `COc1cc(OC)cc(-c2cc(OC)c(-n3c(=O)ccc4cc(S(=O)(=O)Nc5ncc(F)cn5)ccc43)cc2F)c1` registered an IC50 of 33 nM.
For `COc1cc(-c2ccc(Cl)c(C)c2)ccc1-n1c(=O)ccc2cc(S(=O)(=O)Nc3ncco3)ccc21` the value was 9 nM.
In the case of `COc1cc(-c2cc(OC)c(-n3c(=O)ccc4cc(S(=O)(=O)Nc5cccnn5)ccc43)cc2F)ccc1Cl`, the IC50 worked out at 10 nM.
`COc1cc(OC)cc(-c2cc(OC)c(-n3c(=O)ccc4cc(S(=O)(=O)Nc5ccon5)ccc43)cc2F)c1` displayed an IC50 of 12 nM.
For `COc1cc(-c2cccc(C(F)(F)F)c2)c(F)cc1-n1c(=O)ccc2cc(S(=O)(=O)Nc3ncccn3)ccc21` the value was 10 nM; for `COc1cc(Cl)ccc1-c1cc(OC)c(-n2c(=O)ccc3cc(S(=O)(=O)Nc4ccon4)ccc32)cc1F`, 16 nM.
`COc1cc(C#CC2CCCC2)c(F)cc1-n1c(=O)ccc2cc(S(=O)(=O)Nc3cccnn3)ccc21` showed an IC50 of 8 nM.
`COc1cc(-c2cccc(OC(F)F)c2)c(F)cc1-n1c(=O)ccc2cc(S(=O)(=O)Nc3ncccn3)ccc21` gave an IC50 of 23 nM.
`COc1cc(-c2cc(F)cc(C(F)(F)F)c2)ccc1-n1c(=O)ccc2cc(S(=O)(=O)Nc3ncc(F)cn3)ccc21`: half-maximal inhibition (IC50) was put at 35 nM.
The compound `COc1cc(Br)c(F)cc1-n1c(=O)ccc2cc(S(=O)(=O)Nc3nccc(C)n3)ccc21` came in with an IC50 of 1560 nM.
As to `COc1cc(-c2ccc(-n3c(=O)ccc4cc(S(=O)(=O)Nc5ncccn5)ccc43)c(OC)c2)ccc1C`, inhibition was half-maximal at 243 nM (IC50).
As for `COc1cc(C#CC2(C)COC2)c(F)cc1-n1c(=O)ccc2cc(S(=O)(=O)Nc3ccon3)ccc21`, 1550 nM corresponded to half-maximal inhibition (IC50).
For `COc1cc(-c2ccc(F)c(F)c2)ccc1-n1c(=O)ccc2cc(S(=O)(=O)Nc3ncc(F)cn3)ccc21` the value was 76 nM; for `CCc1nccc(NS(=O)(=O)c2ccc3c(ccc(=O)n3-c3cc(F)c(Br)cc3OC)c2)n1`, 124 nM.
Next, `COc1cc(C#CC2CCCC2)c(F)cc1-n1c(=O)ccc2cc(S(=O)(=O)Nc3ccon3)ccc21`: 22 nM; `COc1cc(-c2ccc(Cl)c(C)c2)c(F)cc1-n1c(=O)ccc2cc(S(=O)(=O)Nc3ccon3)c(F)cc21`: 13 nM; `COc1cc(-c2cc(Cl)ccn2)c(F)cc1-n1c(=O)ccc2cc(S(=O)(=O)Nc3ccon3)ccc21`: 93 nM.
`COc1cc(-c2ccccn2)c(F)cc1-n1c(=O)ccc2cc(S(=O)(=O)Nc3ccon3)ccc21` registered an IC50 of 888 nM.
The compound `COc1cc(CC2CCCC2)c(F)cc1-n1c(=O)ccc2cc(S(=O)(=O)Nc3ccon3)ccc21` returned a half-maximal inhibitory concentration (IC50) of 11 nM.
Next, `COCc1cc(NS(=O)(=O)c2ccc3c(ccc(=O)n3-c3cc(F)c(Br)cc3OC)c2)ncn1`: 4530 nM; `COc1cc(Cl)cc(-c2cc(OC)c(-n3c(=O)ccc4cc(S(=O)(=O)Nc5ncccn5)ccc43)cc2C)c1`: 5 nM; `COc1cc(-c2ccc(Cl)c(C)c2)c(F)cc1-n1c(=O)cnc2cc(S(=O)(=O)Nc3ncccn3)ccc21`: 23 nM and 6 nM.
In turn, `COc1cc(-c2ccc(Cl)c(C)c2)c(F)cc1-n1c(=O)ccc2cc(S(=O)(=O)Nc3ccncn3)ccc21` yielded an IC50 of 5 nM.
In turn, `COc1cc(-c2ccc(F)cc2)c(F)cc1-n1c(=O)ccc2cc(S(=O)(=O)Nc3ncccn3)ccc21` had an IC50 of 193 nM.
Next, `COc1cc(C(F)(F)F)c(Cl)cc1-n1c(=O)ccc2cc(S(=O)(=O)Nc3ccncn3)ccc21`: 123 nM.
